This is an account of results in patent publication US11124515B2, “Adenosine receptor antagonists and uses thereof” (Teon Therapeutics, Inc., priority 2018, dated 2021).

Where only a bound is given, the exact number is not on record here.

The nature of this data set: Pharmacokinetic study in Sprague Dawley rats, single oral dose, plasma LC/MS/MS. The format is in vivo. As to conditions: suspension in 0.5% methylcellulose in water. The method, then:
Pharmacokinetic studies were carried out in Sprague Dawley rats. Exemplary compounds were administered orally by gavage to groups of three rats using a single oral dose of 5 mg/kg. Each oral dose was prepared as a suspension in 0.5% methylcellulose in water. Blood samples were obtained serially from each rat at 0, 15, 30 min, and then 1, 2, 4, 8, and 24 hrs post dose.
Concentrations of an administered compound and the corresponding metabolite (Compound 1) in rat plasma were determined by a HPLC tandem mass spectrometric (LC/MS/MS) method. 50 μL Plasma PPT by ISTD in MeOH/Acetonitrile (1:1, v/v). 200 μL of 5 ng/mL Terfenadine and Buspirone was added to in MeOH/Acetonitrile (1:1, v/v) and mixed well. […]
Quantification of compounds were achieved by mass spectrometry using Multiple Reaction Monitoring (MRM) mode, monitoring the transitions specific to each exemplary compound and 447.34>405.20 for Compound 1. The quantification limit of the assay was 10 ng/mL for Compound 1.
Non-compartmental pharmacokinetic parameters were determined using a commercial program WinNonLin Professional, Version 8.0 (Pharsight, Mountain View, Calif.). […]
For oral administration, t½ (hr), tmax (hr), Cmax (ng/mL), AUClast (hr*ng/mL), AUCInf (hr*ng/mL), AUC Extr (%), MRTInf (hr), Cmax Ratio (Parent/Pro), AUClast Ratio (Parent/Pro) were determined.

For the compound `CCCC(=O)OCn1c(-c2cnn(Cc3cccc(C(F)(F)F)c3)c2)nc2c1c(=O)n(CCC)c(=O)n2CC` [Compound E, (3-ethyl-2,6-dioxo-1-propyl-8-(1-(3-(trifluoromethyl)benzyl)-1H-pyrazol-4-yl)-1,2,3,6-tetrahydro-7H-purin-7-yl)methyl butyrate], the “AUC (AUClast)” value (compounds of Formula (B), single oral dose of 5 mg/kg) was “α or β”.
As for `CCCn1c(=O)c2[nH]c(-c3cnn(Cc4cccc(C(F)(F)F)c4)c3)nc2n(CC)c1=O` [Compound 1, 8-(1-(3-(Trifluoromethyl)benzyl)-1H-pyrazol-4-yl)-3-ethyl-1-propyl-1H-purine-2,6(3H,7H)-dione], under “rat, Compound 1, single oral dose of 5 mg/kg, read-out: AUC (AUClast)”, the AUC(0-t) was under 30000 ng·h/mL.
